IC50 and inhibition data for 19 molecules are collected here from patent publication US9604988B2, “Agent for treating or inhibiting recurrence of acute myeloid leukemia” (RIKEN, priority 2012, dated 2017).

Data set [1] concerns the target HCK (Homo sapiens, UniProt P08631). In words: HCK kinase inhibition. Format: biochemical.
Data set [2] deals with hERG (Homo sapiens, UniProt Q12809). The data set can be described thus: hERG inhibition (automated patch-clamp). It counts as cell-based. Background: Block of hERG is tested as a sign of cardiac risk.
The target of data set [3] is T1, FLT3-ITD (Homo sapiens, UniProt P36888, ITD).
T1 sequence (P36888 27-993): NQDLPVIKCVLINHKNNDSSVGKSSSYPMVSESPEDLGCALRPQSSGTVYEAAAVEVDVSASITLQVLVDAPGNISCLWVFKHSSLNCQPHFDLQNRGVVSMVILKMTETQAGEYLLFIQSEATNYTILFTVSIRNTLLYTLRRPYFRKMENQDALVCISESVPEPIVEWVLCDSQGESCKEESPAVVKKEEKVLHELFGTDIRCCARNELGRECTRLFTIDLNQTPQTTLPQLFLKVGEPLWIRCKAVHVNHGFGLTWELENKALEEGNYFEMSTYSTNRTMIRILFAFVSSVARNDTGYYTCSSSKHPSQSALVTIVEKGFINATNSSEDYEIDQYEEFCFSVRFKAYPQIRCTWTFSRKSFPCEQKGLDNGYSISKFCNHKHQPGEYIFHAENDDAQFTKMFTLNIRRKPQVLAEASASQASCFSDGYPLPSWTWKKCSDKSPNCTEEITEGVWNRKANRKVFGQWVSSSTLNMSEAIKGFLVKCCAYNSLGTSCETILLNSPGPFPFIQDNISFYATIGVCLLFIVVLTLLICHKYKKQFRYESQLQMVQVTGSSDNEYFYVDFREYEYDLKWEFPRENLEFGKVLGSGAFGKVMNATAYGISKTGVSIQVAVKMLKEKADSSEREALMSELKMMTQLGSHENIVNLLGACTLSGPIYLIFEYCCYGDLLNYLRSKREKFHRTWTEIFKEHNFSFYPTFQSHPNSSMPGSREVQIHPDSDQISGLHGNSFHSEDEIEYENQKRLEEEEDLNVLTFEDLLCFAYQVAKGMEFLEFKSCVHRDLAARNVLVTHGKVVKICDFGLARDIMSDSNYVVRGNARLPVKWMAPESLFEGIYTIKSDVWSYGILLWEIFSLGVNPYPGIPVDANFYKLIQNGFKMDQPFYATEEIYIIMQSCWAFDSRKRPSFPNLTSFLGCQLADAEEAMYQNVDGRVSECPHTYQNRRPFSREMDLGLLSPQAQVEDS
The data set can be described thus: FLT3-ITD kinase inhibition. It counts as biochemical.

pIC50: −log10 of the molar value.

HCK, sequence (P08631 whole entry): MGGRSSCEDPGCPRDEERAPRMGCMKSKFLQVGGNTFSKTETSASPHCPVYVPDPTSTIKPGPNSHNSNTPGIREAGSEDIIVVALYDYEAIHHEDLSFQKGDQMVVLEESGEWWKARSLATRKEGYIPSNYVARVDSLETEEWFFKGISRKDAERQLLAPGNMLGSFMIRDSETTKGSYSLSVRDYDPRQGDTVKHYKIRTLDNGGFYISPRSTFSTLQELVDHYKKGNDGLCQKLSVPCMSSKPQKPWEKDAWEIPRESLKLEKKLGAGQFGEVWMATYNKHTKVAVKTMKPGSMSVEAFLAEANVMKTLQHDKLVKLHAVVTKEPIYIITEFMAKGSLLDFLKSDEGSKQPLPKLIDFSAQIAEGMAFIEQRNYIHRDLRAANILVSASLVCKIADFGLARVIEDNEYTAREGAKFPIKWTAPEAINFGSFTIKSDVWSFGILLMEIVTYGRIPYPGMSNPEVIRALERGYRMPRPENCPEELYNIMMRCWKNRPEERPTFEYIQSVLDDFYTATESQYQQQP
hERG, sequence (Q12809 whole entry): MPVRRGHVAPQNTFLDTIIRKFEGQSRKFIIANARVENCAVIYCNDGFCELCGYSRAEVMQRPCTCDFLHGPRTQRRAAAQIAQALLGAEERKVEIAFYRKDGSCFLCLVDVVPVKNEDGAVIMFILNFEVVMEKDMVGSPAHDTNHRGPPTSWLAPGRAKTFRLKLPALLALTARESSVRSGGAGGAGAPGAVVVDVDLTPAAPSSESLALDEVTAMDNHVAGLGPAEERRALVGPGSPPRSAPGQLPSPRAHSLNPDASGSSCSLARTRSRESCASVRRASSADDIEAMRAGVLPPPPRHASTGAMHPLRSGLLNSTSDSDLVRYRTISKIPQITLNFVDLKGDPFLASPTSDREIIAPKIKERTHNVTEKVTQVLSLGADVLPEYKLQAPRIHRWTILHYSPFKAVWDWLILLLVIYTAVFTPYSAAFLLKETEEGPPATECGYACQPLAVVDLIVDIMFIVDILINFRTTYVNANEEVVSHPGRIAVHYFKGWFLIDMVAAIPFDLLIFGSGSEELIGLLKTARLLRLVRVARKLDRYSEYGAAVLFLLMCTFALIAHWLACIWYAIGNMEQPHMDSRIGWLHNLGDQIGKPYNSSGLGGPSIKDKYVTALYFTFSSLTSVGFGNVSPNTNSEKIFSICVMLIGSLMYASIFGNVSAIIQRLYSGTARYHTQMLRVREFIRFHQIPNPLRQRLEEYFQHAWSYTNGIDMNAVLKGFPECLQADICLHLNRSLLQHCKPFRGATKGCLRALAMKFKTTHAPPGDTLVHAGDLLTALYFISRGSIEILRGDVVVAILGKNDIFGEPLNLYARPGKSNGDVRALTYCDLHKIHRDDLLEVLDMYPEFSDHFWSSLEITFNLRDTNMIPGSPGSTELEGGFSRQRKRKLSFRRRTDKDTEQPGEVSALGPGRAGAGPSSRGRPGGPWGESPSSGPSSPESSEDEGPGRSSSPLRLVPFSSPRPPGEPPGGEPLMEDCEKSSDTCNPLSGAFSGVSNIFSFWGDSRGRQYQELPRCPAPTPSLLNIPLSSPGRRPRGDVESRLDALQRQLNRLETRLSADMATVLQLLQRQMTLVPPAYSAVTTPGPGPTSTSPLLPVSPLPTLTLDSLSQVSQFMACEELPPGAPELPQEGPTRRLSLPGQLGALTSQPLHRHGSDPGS

By pIC50 is commonly meant the negative decadic logarithm of the IC50, by convention in mol/L. As a reminder, the inhibition is how much of the control response was suppressed. Lower therefore signals a weak effect. Consider `CN1C2CCC1CN([C@H]1CC[C@H](n3nc(-c4ccc(NC(=O)c5ccccn5)cc4)c4c(N)ncnc43)CC1)C2` [Example 21, N-(4-(4-amino-1-((1r,4r)-4-(8-methyl-3,8-diazabicyclo[3.2.1]octan-3-yl)cyclohexyl)-1H-pyrazolo[3,4-d]pyrimidin-3-yl)phenyl)picolinamide], for which the pIC50 in data set [1] was 8.33; in data set [3], 5.93. Also, in data set [2], 10 µM produced 48% inhibition.

As to `Nc1ncnc2c1c(-c1ccc(Oc3ccccc3)cc1)nn2[C@H]1CC[C@H](NC(=O)c2cccnc2)CC1` [Example 22, N-((trans)-4-(4-amino-3-(4-phenoxyphenyl)-1H-pyrazolo[3,4-d]pyrimidin-1-yl)cyclohexyl)nicotinamide], the pIC50 in data set [1] is 7.70; in data set [3] it was 6.72. 10 µM produced 50% inhibition in data set [2].

As to `CN1C2CCC1CN([C@H]1CC[C@H](n3nc(-c4ccc(NC(=O)c5cc6ccccc6n5C)cc4)c4c(N)ncnc43)CC1)C2` [Example 24, N-(4-(4-amino-1-((1r,4r)-4-(8-methyl-3,8-diazabicyclo[3.2.1]octan-3-yl)cyclohexyl)-1H-pyrazolo[3,4-d]pyrimidin-3-yl)phenyl)-1-methyl-1H-indole-2-carboxamide], the pIC50 in data set [1] is 8.01; in data set [3], 5.48. 10 µM produced 64% inhibition in data set [2].

As for `CN1C2CCC1CC(N1CCC(n3nc(-c4ccc(NC(=O)c5cc6ccccc6n5C)cc4)c4c(N)ncnc43)CC1)C2` (centres unmarked) [Example 25, N-(4-(4-amino-1-(1-(8-methyl-8-azabicyclo[3.2.1]octan-3-yl)piperidin-4-yl)-1H-pyrazolo[3,4-d]pyrimidin-3-yl)phenyl)-1-methyl-1H-indole-2-carboxamide], the pIC50 in data set [1] was 8.69; in data set [3], 5.56. Moreover, in data set [2], the inhibition at 10 µM was 42%.

With `COc1cc(-c2cn([C@H]3CC[C@H](N4CCN(C)CC4)CC3)c3ncnc(N)c23)ccc1NC(=O)c1cc2ccccc2n1C` [Example 27, N-(4-(4-amino-7-((trans)-4-(4-methylpiperazin-1-yl)cyclohexyl)-7H-pyrrolo[2,3-d]pyrimidin-5-yl)-2-methoxyphenyl)-1-methyl-1H-indole-2-carboxamide], the figures for the pIC50 in data set [1] and in data set [3] were 8.80 and 6.22, respectively. This molecule also had an inhibition at 10 µM in data set [2] of 39.3%.

As for `COc1cc(-c2nn([C@H]3CC[C@H](N4CCn5c(C)nnc5C4)CC3)c3ncnc(N)c23)ccc1NC(=O)c1cc2ccccc2n1C` [Example 29, N-(4-(4-amino-1-((trans)-4-(3-methyl-5,6-dihydro[1,2,4]triazolo[4,3-a]pyrazin-7(8H)-yl)cyclohexyl)-1H-pyrazolo[3,4-d]pyrimidin-3-yl)-2-methoxyphenyl)-1-methyl-1H-indole-2-carboxamide], the pIC50 is 8.74 in data set [1] and 5.87 in data set [3]. The molecule also came in with an inhibition at 10 µM in data set [2] of 17.1%.

As to `COc1cc(-c2cn([C@H]3CC[C@H](N4CCn5c(cnc5C)C4)CC3)c3ncnc(N)c23)ccc1NC(=O)c1cc2ccccc2n1C` [Example 36, N-(4-(4-amino-7-((trans)-4-(3-methyl-5,6-dihydroimidazolo[1,5-a]pyrazin-7(8H)-yl)cyclohexyl)-7H-pyrrolo[2,3-d]pyrimidin-5-yl)-2-methoxyphenyl)-1-methyl-1H-indole-2-carboxamide], the results for the pIC50 in data set [1] and in data set [3] were 8.40 and 6.39, respectively.

For the molecule `COc1cc(-c2cn([C@H]3CC[C@@H](N4CCn5nc(C)cc5C4)CC3)c3ncnc(N)c23)ccc1NC(=O)c1cc2ccccc2n1C` [Example 37, N-(4-(4-amino-7-((cis)-4-(2-methyl-6,7-dihydropyrazolo[1,5-a]pyrazin-5(4H)-yl)cyclohexyl)-7H-pyrrolo[2,3-d]pyrimidin-5-yl)-2-methoxyphenyl)-1-methyl-1H-indole-2-carboxamide], the pIC50 is 8.11 in data set [1] and 5.48 in data set [3].

Regarding `COc1cc(-c2cn([C@H]3CC[C@@H](N4CCn5nccc5C4)CC3)c3ncnc(N)c23)ccc1NC(=O)c1cc2ccccc2n1C` [Example 38, N-(4-(4-amino-7-((cis)-4-(6,7-dihydropyrazolo[1,5-a]pyrazin-5(4H)-yl)cyclohexyl)-7H-pyrrolo[2,3-d]pyrimidin-5-yl)-2-methoxyphenyl)-1-methyl-1H-indole-2-carboxamide], the figures for the pIC50 in data set [1] and in data set [3] were 8.55 and 5.18, respectively.

With `COc1cc(-c2cn([C@H]3CC[C@H](N4CCn5c(C)cnc5C4)CC3)c3ncnc(N)c23)ccc1NC(=O)c1cc2ccccc2n1C` [Example 39, N-(4-(4-amino-7-((trans)-4-(3-methyl-5,6-dihydroimidazo[1,2-a]pyrazin-7(8H)-yl)cyclohexyl)-7H-pyrrolo[2,3-d]pyrimidin-5-yl)-2-methoxyphenyl)-1-methyl-1H-indole-2-carboxamide], the pIC50 in data set [1] is 8.40; in data set [3], 5.34.

Turning to `COCCN1CCN([C@H]2CC[C@H](n3cc(-c4ccc(Oc5ccccc5)cc4)c4c(N)ncnc43)CC2)CC1` [Example 40, 7-((trans)-4-(4-(2-Methoxyethyl)pyrazin-1-yl)cyclohexyl)-5-(4-phenoxyphenyl)-7H-pyrrolo[2,3-d]pyrimidin-4-amine], the pIC50 in data set [1] is 8.40; in data set [3], 7.80. This molecule showed an inhibition at 10 µM in data set [2] of 96%.

For the molecule `Nc1ncnc2c1c(-c1ccc(Oc3ccccc3)cc1)cn2[C@H]1CC[C@H](N2CCN(CCO)CC2)CC1` [Example 41, 2-(4-((trans)-4-(4-Amino-5-(4-phenoxyphenyl)-7H-pyrrolo[2,3-d]pyrimidin-7-yl)cyclohexyl)piperazin-1-yl)ethan-1-ol], in data set [2], the inhibition at 10 µM worked out at 93%. In data set [3], this molecule showed a pIC50 of 7.68.

Turning to `CC(C)N1CCN([C@H]2CC[C@H](n3cc(-c4ccc(Oc5ccccc5)cc4)c4c(N)ncnc43)CC2)CC1` [Example 42, 7-((trans)-4-(4-Isopropylpiperazin-1-yl)cyclohexyl)-5-(4-phenoxyphenyl)-7H-pyrrolo[2,3-d]pyrimidin-4-amine], in data set [2], the inhibition at 10 µM turned out to be 88%. Further, in data set [3], the pIC50 is 7.66.

`Nc1ncnc2c1c(-c1ccc(Oc3ccccc3)cc1)cn2[C@H]1CC[C@H](NCc2ccncc2)CC1` [Example 44, 5-(4-phenoxyphenyl)-7-((trans)-4-((pyridin-4-ylmethyl)amino)cyclohexyl)-7H-pyrrolo[2,3-d]pyrimidin-4-amine] yielded an inhibition at 10 µM in data set [2] of 93%. In data set [3], the pIC50 was 7.82.

Consider `Nc1ncnc2c1c(-c1ccc(Oc3ccccc3)cc1)cn2[C@H]1CC[C@@H](NCc2ccccn2)CC1` [Example 47, 5-(4-Phenoxyphenyl)-7-((cis)-4-((pyridin-2-ylmethyl)amino)cyclohexyl)-7H-pyrrolo[2,3-d]pyrimidin-4-amine], for which the pIC50 was 8.19 in data set [1] and 7.92 in data set [3]. In addition, the inhibition at 10 µM in data set [2] is 99%.

For the molecule `Cn1nccc1CN[C@H]1CC[C@@H](n2cc(-c3ccc(Oc4ccccc4)cc3)c3c(N)ncnc32)CC1` [Example 49, 7-((cis)-4-(((1-Methyl-1H-pyrazol-5-yl)methyl)amino)cyclohexyl)-5-(4-phenoxyphenyl)-7H-pyrrolo[2,3-d]pyrimidin-4-amine], the pIC50 was 9.28 in data set [1] and 7.64 in data set [3]. At 10 µM the inhibition in data set [2] was 99%.

On to `Nc1ncnc2c1c(-c1ccc(Oc3ccccc3)cc1)cn2[C@H]1CC[C@@H](N[C@H]2CCNC2=O)CC1` [Example 53, (S)-3-(((cis)-4-(4-amino-5-(4-phenoxyphenyl)-7H-pyrrolo[2,3-d]pyrimidin-7-yl)cyclohexyl)amino)pyrrolidin-2-one], for which testing at 10 µM in data set [2] gave an inhibition of 97%. The same molecule gave a pIC50 in data set [3] of 7.52.

As for `Nc1ncnc2c1c(-c1ccc(Oc3ccccc3)cc1)cn2[C@H]1CC[C@H](N2CCn3c(nnc3C(F)(F)F)C2)CC1` [Example 58, 5-(4-Phenoxyphenyl)-7-((trans)-4-(3-(trifluoromethyl)-5,6-dihydro[1,2,4]triazolo[4,3-a]pyrazin-7(8H)-yl)cyclohexyl)-7H-pyrrolo[2,3-d]pyrimidin-4-amine], the pIC50 was 7.64 in data set [1] and 7.37 in data set [3].

In the case of `CN1CCN([C@H]2CC[C@H](n3nc(-c4ccc(Oc5ccccc5)cc4)c4c(N)ncnc43)CC2)CC1` [Example 59, 1-((trans)-4-(4-Methylpiperazin-1-yl)cyclohexyl)-3-(4-phenoxyphenyl)-1H-pyrazolo[3,4-d]pyrimidin-4-amine], the pIC50 is 8.52 in data set [1] and 7.26 in data set [3].
